Experimental data: US20260001864A1, “COMPOUND CONTAINING SULFAMIDE STRUCTURE, AND PREPARATION METHOD THEREFOR AND APPLICATION THEREOF, AND PHARMACEUTICAL COMPOSITION AND APPLICATION” (Nanjing Shuohui Pharmatechnology Co., Ltd, priority 2021, published 2026)
pIC50: −log10 of the molar value.

target: H+/K+-ATPase (rabbit gastric mucosal microsomes) (Oryctolagus cuniculus (Rabbit), UniProt P27112); test: In vitro screening test of H+/K+-ATPase inhibition (malachite green); format: biochemical; settings: pH 6.5, 37° C. 30 min, read-out: IC50, inhibitory effect on H+/K+-ATPase activity
Sequence (P27112 whole entry): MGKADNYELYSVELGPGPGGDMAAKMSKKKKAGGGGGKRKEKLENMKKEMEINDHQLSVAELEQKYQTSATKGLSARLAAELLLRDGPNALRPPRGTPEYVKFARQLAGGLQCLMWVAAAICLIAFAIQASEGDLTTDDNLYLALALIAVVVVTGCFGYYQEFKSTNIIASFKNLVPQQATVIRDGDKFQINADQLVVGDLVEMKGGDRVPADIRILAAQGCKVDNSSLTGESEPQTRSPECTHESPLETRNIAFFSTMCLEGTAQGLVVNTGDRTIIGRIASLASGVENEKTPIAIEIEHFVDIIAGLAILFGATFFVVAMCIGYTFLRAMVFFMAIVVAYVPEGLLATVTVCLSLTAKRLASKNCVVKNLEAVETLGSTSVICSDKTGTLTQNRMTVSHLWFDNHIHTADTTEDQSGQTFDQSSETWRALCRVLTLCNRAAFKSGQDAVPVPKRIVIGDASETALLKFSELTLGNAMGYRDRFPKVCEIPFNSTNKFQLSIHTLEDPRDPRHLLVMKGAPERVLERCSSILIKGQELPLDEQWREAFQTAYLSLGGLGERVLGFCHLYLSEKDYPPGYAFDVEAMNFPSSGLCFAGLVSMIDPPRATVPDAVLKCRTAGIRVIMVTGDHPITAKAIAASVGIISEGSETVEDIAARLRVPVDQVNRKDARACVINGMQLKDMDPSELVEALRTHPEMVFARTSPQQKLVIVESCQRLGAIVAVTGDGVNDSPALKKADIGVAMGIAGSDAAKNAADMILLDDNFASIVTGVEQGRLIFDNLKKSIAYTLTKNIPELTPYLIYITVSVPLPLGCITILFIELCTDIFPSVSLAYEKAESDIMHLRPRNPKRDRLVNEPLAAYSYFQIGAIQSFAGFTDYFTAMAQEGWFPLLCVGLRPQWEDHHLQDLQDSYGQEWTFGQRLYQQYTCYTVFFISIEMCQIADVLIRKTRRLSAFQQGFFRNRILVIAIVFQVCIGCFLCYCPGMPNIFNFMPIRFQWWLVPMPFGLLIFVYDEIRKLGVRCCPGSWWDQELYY
Sequence (P18597 whole entry partner): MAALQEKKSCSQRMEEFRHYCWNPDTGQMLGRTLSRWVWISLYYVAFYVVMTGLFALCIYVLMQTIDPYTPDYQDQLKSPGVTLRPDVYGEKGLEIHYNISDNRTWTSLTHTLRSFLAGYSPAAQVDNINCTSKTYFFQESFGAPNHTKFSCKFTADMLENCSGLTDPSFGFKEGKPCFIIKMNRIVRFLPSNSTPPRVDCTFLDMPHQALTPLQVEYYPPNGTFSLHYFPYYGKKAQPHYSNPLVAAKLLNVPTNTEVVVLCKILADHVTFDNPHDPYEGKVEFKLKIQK
From the text: This test example evaluates the inhibitory effects of the compounds of the present invention on the activity of H+/K+-ATPase by an in vitro screening test, and expresses them with the IC50 values of the compounds (obtained by calculating the inhibition rates at different concentrations).
• Compound solutions: The products (i.e., the compounds or the hydrochloride salt of compounds) obtained in the foregoing preparation examples of the present invention were each independently dissolved in DMSO to form solutions at suitable concentrations; • Buffer I: 50 mmol/L HEPEs-Tris, pH=6.5, 5 mmol/L magnesium chloride, […] valinomycin (J&K Scientific Ltd., goods No.: 227304); • Buffer II: 50 mmol/L HEPEs-Tris, pH=6.5, 5 mmol/L magnesium chloride, […] valinomycin, 5 mmol/L potassium chloride; • 5-adenosine triphosphate (ATP, Sigma-Aldrich, goods No.: A2383) solution: Dilute ATP with buffer I to 5 mM; • Malachite green solution: Dissolve 0.12 wt % malachite green (J&K Scientific Ltd., goods No.: 913120) in 2.5 mol/L sulfuric acid, 7.5 wt % ammonium molybdate (J&K Scientific Ltd., goods No.: 128321) and 11% Tween 20(V/V). During use, sulfuric acid, ammonium molybdate and Tween 20 are mixed in a ratio of 100:25:2; • Rabbit gastric mucosal microsomes (rich in H+/K+-ATPase, self-extracted), extracted by sucrose gradient centrifugation: The rabbit stomach was washed with tap water and 3M NaCl solution, respectively, and then the surface water was removed with filter paper. A pre-cooled homogenization buffer (4 ml/g tissue) was added and homogenized for 2-5 min in a tissue homogenizer. After the homogenizing, if there are large tissue particles, they can be removed by centrifugation (600 g, 10 min). The supernatant was then transferred to a clean centrifuge tube and centrifuged at 20,000 g for 30 min, then the supernatant was transferred to a clean centrifuge tube and further centrifuged at 100,000 g for 90 min and the precipitate was collected; the precipitate was suspended in homogenate and blown evenly, and the protein concentration was measured by the Bradford's method and adjusted to 10 mg/ml; 7.5 wt % Ficoll's layering solution was added in equal proportions. After centrifugation at 100,000 g for 60 min, the middle layer (H^+/K^+-ATPase-enriched gastric membranes) was collected in a clean centrifuge tube, diluted with homogenate by 4-5 times, and then centrifuged at 100,000 g for another 90 min, and the precipitate was collected; the precipitate was suspended in homogenate and homogenized in a glass homogenizer, and the protein concentration was measured by the Bradford's method and adjusted to 22.5 mg/ml. It was frozen at −80° C. and stored for future use.
5 μL of rabbit gastric mucosal microsomes (H^+/K^+-ATPase) was added to 45 μL of buffer II, then 5 μL of compound solution was added, and then 5 μL of 5 mM ATP solution was added to start the reaction and pre-react at 37° C. for 30 min. 15 μL of malachite green solution was added to terminate the reaction, balancing was conducted at room temperature for 20 min, and read the optical absorbance at 620 nm.
Meanwhile, the reaction of the same volume was carried out without addition of potassium chloride as a background, which was subtracted when calculating enzymatic activity.

First: CNCc1cc(-c2ccc(OCc3cccc4ccccc34)cc2F)n(S(=O)(=O)c2cccc(C#N)c2)c1 [Compound 63]
Second: CNCc1cc(-c2ccc(OC(C)c3c(F)cccc3F)cc2F)n(S(=O)(=O)c2cccc(C#N)c2)c1 (stereo not shown) [Compound 69]
The pIC50 of the first is 0.96 log units lower: 5.98 for the first, 6.94 for the second. The second is the more potent here.

Compared with `CNCc1cc(-c2ccc(OCc3ccc(C(=O)O)cc3)cc2F)n(S(=O)(=O)c2cccnc2)c1` [Compound 64], `CNCc1cc(-c2ccc(OCc3ccncc3)cc2F)n(S(=O)(=O)c2cccnc2)c1` [Compound 74] is 0.54 log units lower in pIC50: 6.79 for the first, 6.25 for the second. The first is the more potent here.

Going from `CNCc1cc(-c2ccc(OC(C)c3cc(F)ccc3F)cc2F)n(S(=O)(=O)c2cccnc2)c1` (stereo not shown) [Compound 65] to `CNCc1cc(-c2ccc(OC(C)c3cc(F)cc(F)c3)cc2F)n(S(=O)(=O)c2cccnc2)c1` (stereo not shown) [Compound 68], the pIC50 rises from 7.09 to 7.38 (0.29 log units). The second is the more potent here.

`CNCc1cc(-c2ccc(O[C@@H](C)c3c(Cl)ccc(F)c3Cl)cc2F)n(S(=O)(=O)c2cccnc2)c1` [Compound 66] and `CNCc1cc(-c2ccc(O[C@H](C)c3c(Cl)ccc(F)c3Cl)cc2F)n(S(=O)(=O)c2cccnc2)c1` [Compound 76] are within 0.2 log units of each other in pIC50: 6.31 for the first, 6.33 for the second.

Going from `CNCc1cc(-c2ccc(OC(C)c3cc(F)cc(F)c3)cc2F)n(S(=O)(=O)c2cccc(C#N)c2)c1` (stereo not shown) [Compound 70] to `CNCc1cc(-c2ccc(OC(C)c3cc(F)cc(F)c3)cc2F)n(S(=O)(=O)c2cccc(OCC3CC3)c2)c1` (stereo not shown) [Compound 71], the pIC50 falls from 7.06 to 6.30 (0.76 log units). The first is the more potent here.

Compared with `CNCc1cc(-c2ccc(OC(C)c3c(F)cccc3F)cc2F)n(S(=O)(=O)c2cccc(OCC3CC3)c2)c1` (stereo not shown) [Compound 72], `CNCc1cc(-c2ccc(OC(C)c3c(F)cccc3F)cc2F)n(S(=O)(=O)c2cccc(OCC3CCC3)c2)c1` (stereo not shown) [Compound 83] is 1.60 log units lower in pIC50: 6.47 for the first, 4.87 for the second.

First: CNCc1cc(-c2ccc(OCc3ccc(C)cc3C)cc2F)n(S(=O)(=O)c2cccnc2)c1 [Compound 73]
Second: CNCc1cc(-c2ccc(OCc3ccccc3OC)cc2F)n(S(=O)(=O)c2cccnc2)c1 [Compound 75]
The pIC50 of the first is 0.76 log units lower: 6.68 for the first, 7.44 for the second.

`CNCc1cc(-c2ccc(OCc3ccsc3)cc2F)n(S(=O)(=O)c2cccnc2)c1` [Compound 77] and `CNCc1cc(-c2ccc(OCc3cc(F)ccc3F)cc2F)n(S(=O)(=O)c2cccc(Cl)c2)c1` [Compound 78] are within 0.2 log units of each other in pIC50: 6.92 for the first, 7.01 for the second.

`CNCc1cc(-c2ccc(OCc3cc(F)ccc3F)cc2F)n(S(=O)(=O)c2cccc(F)c2)c1` [Compound 79] and `CNCc1cc(-c2ccc(OCc3cc(F)ccc3F)cc2F)n(S(=O)(=O)c2ccc(C)c(F)c2)c1` [Compound 81] are within 0.2 log units of each other in pIC50: 7.26 for the first, 7.25 for the second.

Compared with `CNCc1cc(-c2ccc(OCc3cc(F)ccc3F)cc2F)n(S(=O)(=O)c2cc(F)cc(F)c2)c1` [Compound 80], `CNCc1cc(-c2ccc(OCc3cc(F)ccc3F)cc2F)n(S(=O)(=O)c2cccc(OCCOC)c2)c1` [Compound 86] is 0.28 log units higher in pIC50: 7.18 for the first, 7.46 for the second. The second is the more potent here.

First: CCCCCOc1cccc(S(=O)(=O)n2cc(CNC)cc2-c2ccc(OCc3cc(F)ccc3F)cc2F)c1 [Compound 82]
Second: CNCc1cc(-c2ccc(OCc3cc(F)ccc3F)cc2F)n(S(=O)(=O)c2cccc(OCC3CCCC3)c2)c1 [Compound 84]
The pIC50 of the first is 1.52 log units lower: 5.44 for the first, 6.96 for the second. The second is the more potent here.

Compared with `CNCc1cc(-c2ccc(OC(C)c3c(F)cccc3F)cc2F)n(S(=O)(=O)c2cccc(OCC3CCCC3)c2)c1` (stereo not shown) [Compound 85], `CNCc1cc(-c2ccc(OC(C)c3c(F)cccc3F)cc2F)n(S(=O)(=O)c2cccc(OCCCOC)c2)c1` (stereo not shown) [Compound 88] is 1.34 log units higher in pIC50: 5.01 for the first, 6.35 for the second.

Going from `CNCc1cc(-c2ccc(OCc3ccccc3OC)cc2F)n(S(=O)(=O)c2cccc(OCCOC)c2)c1` [Compound 87] to `CNCc1cc(-c2ccc(OCc3ccc4ccccc4c3)cc2F)n(S(=O)(=O)c2cccc(OCCCCOC)c2)c1` [Compound 90], the pIC50 falls from 7.36 to 5.57 (1.79 log units).

First: CNCc1cc(-c2ccc(OC(C)c3cc(F)cc(F)c3)cc2F)n(S(=O)(=O)c2cccc(OCCCOC)c2)c1 (stereo not shown) [Compound 89]
Second: CNCc1cc(-c2ccc(OC(C)c3c(F)cccc3F)cc2F)n(S(=O)(=O)c2cccc(OCCCCOC)c2)c1 (stereo not shown) [Compound 91]
The pIC50 of the first is 0.28 log units lower: 5.88 for the first, 6.16 for the second. The second is the more potent here.
